{"source": "patent US20240390301A1", "about": "“COMBINATIONS OF PERIPHERAL 5-HT2A RECEPTOR ANTAGONISTS AND CENTRAL 5-HT2A RECEPTOR AGONISTS” (priority 2021, published 2024)", "key": {"[1]": {"system": "DOPR-induced head twitch response (HTR)", "test": "Blockade of DOPR-induced head twitch response (HTR) in rats", "type": "in vivo, Sprague-Dawley rats", "conditions": "for Attenuation of the HTR to DOPR (significance vs. vehicle): all doses tested, SC, Dunnett's multiple comparison test; for Mean HTR (SEM): 10 min before DOPR 0.32 mg/kg SC, HTRs counted for 20 min", "protocol": "FIG. 1 graphically depicts in a bar graph the effect of xylamidine pre-treatment on the HTR induced by DOPR in the rat. The indicated doses of xylamidine or vehicle were administered SC. followed 10 minutes later by DOPR (0.32 mg/kg, SC), and HTRs were counted for 20 minutes immediately after DOPR administration (10-30 min after administration of xylamidine). […] In FIG. 2, the effect of BW501C67 pre-treatment on the HTR induced by DOPR in the rat is depicted graphically in a bar graph. […] FIG. 4 graphically depicts in a bar graph the effect of sarpogrelate pre-treatment on the HTR induced by DOPR in the rat.\nAnimals. Adult male Sprague-Dawley rats aged 8 weeks (body weight ˜270 g) were used in these experiments. Animals were pair housed under controlled temperatures and 12-hour light/dark cycles (lights on between 07:00-19:00 h), with ad libitum food and water. The protocol was approved by the Eurofins Advinus Institutional Animal Care and Use Committee. This study was carried out in strict accordance with the recommendations in the Guide for the Care and Use of Laboratory Animals of the National Institutes of Health. All efforts were made to minimize suffering.\nDrugs and Drug Administration. Test compounds were prepared as described above or commercially obtained. Drugs were dissolved in their respective vehicle solutions (see Table 4) and administered subcutaneously (SC) in a volume of 5 mL/kg (except for the experiment with sarpogrelate, where a volume of […] was used). […] The 5-HT2A receptor agonist DOPR was then administered at 1 dose (0.32 mg/kg, SC, in saline, calculated based on the free base) to all animals 10 min after pretreatment with the test peripheral antagonist or vehicle.\nProcedure. Rats were administered one dose (0.01 to 100 mg/kg, SC, as indicated) of a test peripheral antagonist (or vehicle) 10 mins prior to administration of DOPR (0.32 mg/kg, SC). After administration of DOPR, rats were immediately placed into a small open field for behavioral observation.\nStatistical analysis. The data points shown in Table 4 are the mean±standard error of the mean (SEM). Statistical comparisons were performed between each peripheral antagonist treatment group and its respective vehicle treatment group using Dunnett's multiple comparison test. Analysis was performed using GraphPad Prism 6."}, "[2]": {"test": "in vivo", "type": "in vivo, rat", "conditions": "for Peripheral restriction / brain penetration: from free brain:free plasma ratios; for Kp at 0.167 h / Kp at 0.5 h: male, Sprague Dawley, rat, in vivo; for Kp at 0.167 h: read-out: Free Brain:Free Plasma (0.167 h); for Kp at 0.5 h: read-out: Free Brain:Free Plasma (0.5 h)", "protocol": "The ratio of free brain concentration to free plasma concentration was calculated at 0.167 h and 0.5 h post administration for each compound using the data presented in the above examples and the following formula.\nA smaller value for the free brain: free plasma ratio indicates greater peripheral restriction and therefore, better suitability for the methods of the present disclosure."}, "[3]": {"test": "Metabolic stability in human liver microsomes", "type": "in vitro ADME", "conditions": "for half-life at 1 μM / microsomal CLint at 1 μM: both sexes, human, microsomes, pH 7.4", "protocol": "HLM Stability. Pooled HLM from adult male and female donors (Corning 452117) were used. Microsomal incubations were carried out in multi-well plates. Liver microsomal incubation medium consisted of PBS (100 mM, pH 7.4), MgCl2 (1 mM), and NADPH (1 mM), with 0.50 mg of liver microsomal protein per mL. Control incubations were performed by replacing the NADPH-cofactor system with PBS. Test compounds (1 μM, final solvent concentration 1.0%) were incubated with microsomes at 37° C. with constant shaking. Six time points over 60 minutes were analyzed, with 60 μL aliquots of the reaction mixture being drawn at each time point. The reaction aliquots were stopped by adding 180 μL of cold (4° C.) acetonitrile containing 200 ng/mL tolbutamide and 200 ng/ml labetalol as internal standards (IS), followed by shaking for 10 minutes, and then protein sedimentation by centrifugation at 4,000 rpm for 20 minutes at 4° C. Supernatant samples (80 μL) were diluted with water (240 μL) and analyzed for parent compound remaining using a fit-for-purpose liquid chromatography-tandem mass spectrometry (LC-MS/MS) method.\nData Analysis. The elimination constant (kel), half-life (t1/2), and intrinsic clearance (CLint) were determined in a plot of […] versus time, using linear regression analysis."}, "[4]": {"target": "T1, 5-HT2A receptor (Homo sapiens, UniProt P28223)", "T1 construct": "WuXi AppTec (Hong Kong) Limited (contract laboratory that ran the assay)", "T1 sequence (P28223 whole entry)": "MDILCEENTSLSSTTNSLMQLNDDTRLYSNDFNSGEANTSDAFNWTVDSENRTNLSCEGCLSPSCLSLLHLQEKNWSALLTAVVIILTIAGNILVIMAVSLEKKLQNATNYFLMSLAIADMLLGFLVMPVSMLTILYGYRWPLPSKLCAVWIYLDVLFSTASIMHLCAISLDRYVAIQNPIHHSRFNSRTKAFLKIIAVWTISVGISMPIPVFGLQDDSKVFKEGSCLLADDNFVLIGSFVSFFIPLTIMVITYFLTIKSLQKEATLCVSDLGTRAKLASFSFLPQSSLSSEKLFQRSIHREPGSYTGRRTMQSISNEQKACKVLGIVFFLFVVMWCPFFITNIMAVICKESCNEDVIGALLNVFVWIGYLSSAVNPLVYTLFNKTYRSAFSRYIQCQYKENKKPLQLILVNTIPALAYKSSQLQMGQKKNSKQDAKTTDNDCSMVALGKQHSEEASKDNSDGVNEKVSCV", "test": "5-HT2A radioligand binding with [3H]ketanserin", "protocol": "The binding affinities of key peripheral 5-HT2A receptor antagonists, as well as reference 5-HT2A agonists, at the ketanserin binding site of the 5-HT2A receptor and the mesulergine binding site of the 5-HT2C receptor were determined in radioligand binding experiments.\nMethod. Affinity of the test compounds for the 5-HT2A and 5-HT2C receptors was determined in radioligand binding experiments with [^3H] ketanserin and [^3H] mesulergine, respectively, by WuXi AppTec (Hong Kong) Limited, using methods adapted from the literature and under conditions described in Table 1."}, "[5]": {"conditions": "HLM, 1 μM, 0.50 mg protein per mL, NADPH"}, "[6]": {"conditions": "calculated using 10 mg/kg PK data"}, "[7]": {"conditions": "HEK293 stable cell line, 1 nM [3H]ketanserin, 1 h, 25° C., read-out: 5-HT2A Ki (nM) ([3H]ketanserin)"}}, "note": "Where two headings read alike, the source gives them in different places.", "data": [{"smiles": "CC(CNC(=N)CNc1ccccc1)Oc1cccc(Cl)c1.O=CO", "note": "(stereo not drawn) [BW501C67, N-(2-(3-chlorophenoxy)propyl)-2-(phenylamino)acetimidamide formate]", "values": [{"measurement": "Attenuation of the HTR to DOPR (significance vs. vehicle)", "setting": "[1]", "result": "not statistically significant"}, {"measurement": "Mean HTR (SEM)", "setting": "[1]; antagonist 0.01 mg/kg SC", "result": 5.83}, {"measurement": "Mean HTR (SEM)", "setting": "[1]; antagonist 0.1 mg/kg SC", "result": 2.67}, {"measurement": "Mean HTR (SEM)", "setting": "[1]; antagonist 1 mg/kg SC", "result": 5.33}, {"measurement": "Mean HTR (SEM)", "setting": "[1]; antagonist 10 mg/kg SC", "result": 4.33}, {"measurement": "Peripheral restriction / brain penetration", "setting": "[2]", "result": "by far the most peripherally restricted compound"}, {"measurement": "Kp at 0.167 h", "setting": "[2]; calculated using 1 mg/kg data", "result": 0.0032}, {"measurement": "Kp at 0.5 h", "setting": "[2]; calculated using 1 mg/kg data", "result": 0.0052}, {"measurement": "Metabolic stability in HLM", "setting": "[3]", "result": "poor metabolic stability"}, {"measurement": "half-life at 1 μM", "setting": "[3]; [5]", "result": 7.2, "unit": "min"}, {"measurement": "microsomal CLint at 1 μM", "setting": "[3]; [5]", "result": 192, "unit": "µL/min/mg"}, {"measurement": "Ki", "setting": "[4]", "result": 0.42, "unit": "nM"}]}, {"smiles": "CC(C)COc1ccc(CNC(=O)N(Cc2ccc(F)cc2)C2CCN(C(=O)CC[C@H](N)C(=O)O)CC2)cc1", "note": "[Compound 14a, (S)-2-amino-5-(4-(1-(4-fluorobenzyl)-3-(4-isobutoxybenzyl)ureido)piperidin-1-yl)-5-oxopentanoic acid]", "values": [{"measurement": "Attenuation of the HTR to DOPR (significance vs. vehicle)", "setting": "[1]", "result": "statistically significant attenuation of the HTR"}, {"measurement": "Mean HTR (SEM)", "setting": "[1]; antagonist 0.01 mg/kg SC", "result": 2.50}, {"measurement": "Mean HTR (SEM)", "setting": "[1]; antagonist 0.1 mg/kg SC", "result": 2.00}, {"measurement": "Mean HTR (SEM)", "setting": "[1]; antagonist 1 mg/kg SC", "result": 2.17}, {"measurement": "Mean HTR (SEM)", "setting": "[1]; antagonist 10 mg/kg SC", "result": 1.83}, {"measurement": "Peripheral restriction / brain penetration", "setting": "[2]", "result": "good peripheral restriction"}, {"measurement": "Kp at 0.167 h", "setting": "[2]; calculated using 1 mg/kg data", "result": 0}, {"measurement": "Kp at 0.5 h", "setting": "[2]; calculated using 1 mg/kg data", "result": 0}, {"measurement": "Kp at 0.167 h", "setting": "[2]; [6]", "result": 0.048}, {"measurement": "Kp at 0.5 h", "setting": "[2]; [6]", "result": 0.035}, {"measurement": "Metabolic stability in HLM", "setting": "[3]", "result": "highly stable"}, {"measurement": "half-life at 1 μM", "setting": "[3]; [5]", "result": "> 145", "unit": "min"}, {"measurement": "microsomal CLint at 1 μM", "setting": "[3]; [5]", "result": "< 9.6", "unit": "µL/min/mg"}, {"measurement": "Ki", "setting": "[4]; [7]", "result": 3.83, "unit": "nM"}]}, {"smiles": "COc1cccc(CCc2ccccc2OCC(CN(C)C)OC(=O)CCC(=O)O)c1", "note": "(stereo not drawn) [sarpogrelate]", "values": [{"measurement": "Attenuation of the HTR to DOPR (significance vs. vehicle)", "setting": "[1]", "result": "statistically significant attenuation of the HTR"}, {"measurement": "Mean HTR (SEM)", "setting": "[1]; antagonist 1 mg/kg SC", "result": 2.33}, {"measurement": "Mean HTR (SEM)", "setting": "[1]; antagonist 3 mg/kg SC", "result": 1.83}, {"measurement": "Mean HTR (SEM)", "setting": "[1]; antagonist 10 mg/kg SC", "result": 1.33}, {"measurement": "Mean HTR (SEM)", "setting": "[1]; antagonist 30 mg/kg SC", "result": 1.33}, {"measurement": "Mean HTR (SEM)", "setting": "[1]; antagonist 100 mg/kg SC", "result": 0.33}, {"measurement": "Peripheral restriction / brain penetration", "setting": "[2]", "result": "substantial brain penetration"}, {"measurement": "Kp at 0.167 h", "setting": "[2]; [6]", "result": 0.37}, {"measurement": "Kp at 0.5 h", "setting": "[2]; [6]", "result": 0.29}]}, {"smiles": "COc1cccc(C(=O)Nc2ccc(OCCN3CCOCC3)c(-c3ccnn3C)c2)c1", "note": "[temanogrel]", "values": [{"measurement": "Peripheral restriction / brain penetration", "setting": "[2]", "result": "substantial brain penetration"}, {"measurement": "Kp at 0.167 h", "setting": "[2]; [6]", "result": 0.33}, {"measurement": "Kp at 0.5 h", "setting": "[2]; [6]", "result": 0.34}]}, {"smiles": "COc1cccc(OC(C)CNC(=N)Cc2cccc(C)c2)c1.O=C(O)C(F)(F)F", "note": "(stereo not drawn) [xylamidine, N-(2-(3-methoxyphenoxy)propyl)-2-(m-tolyl) acetimidamide trifluoroacetate]", "values": [{"measurement": "Attenuation of the HTR to DOPR (significance vs. vehicle)", "setting": "[1]", "result": "not statistically significant"}, {"measurement": "Mean HTR (SEM)", "setting": "[1]; antagonist 0.01 mg/kg SC", "result": 7.33}, {"measurement": "Mean HTR (SEM)", "setting": "[1]; antagonist 0.1 mg/kg SC", "result": 5.00}, {"measurement": "Mean HTR (SEM)", "setting": "[1]; antagonist 1 mg/kg SC", "result": 3.17}, {"measurement": "Mean HTR (SEM)", "setting": "[1]; antagonist 10 mg/kg SC", "result": 2.83}, {"measurement": "Free Brain:Free Plasma (0.167 h)", "setting": "[2]; calculated using 1 mg/kg data", "result": 0.018}, {"measurement": "Free Brain:Free Plasma (0.5 h)", "setting": "[2]; calculated using 1 mg/kg data", "result": 0.052}, {"measurement": "Free Brain:Free Plasma (0.167 h)", "setting": "[2]; [6]", "result": 0.018}, {"measurement": "Free Brain:Free Plasma (0.5 h)", "setting": "[2]; [6]", "result": 0.018}, {"measurement": "Metabolic stability in HLM", "setting": "[3]", "result": "poor metabolic stability"}, {"measurement": "Clint", "setting": "[3]; [5]", "result": 448.6, "unit": "µL/min/mg"}, {"measurement": "t1/2", "setting": "[3]; [5]", "result": 3.1, "unit": "min"}, {"measurement": "Ki", "setting": "[4]; [7]", "result": 0.55, "unit": "nM"}]}]}
